Assay results from the NIST ThermoML archive (doi:10.1021/je700096m).
± gives the expanded uncertainty stated by the source.

Conditions: Liquid

CCCCCCCCCl [1-chlorooctane]
Conditions | mass density [kg/m3]
288.15 K, 100 kPa | 877.3 ± 1.3
288.15 K, 2000 kPa | 878.8 ± 1.3
288.15 K, 4000 kPa | 880.2 ± 1.4
288.15 K, 6000 kPa | 881.6 ± 1.5
288.15 K, 8000 kPa | 883 ± 1.5
288.15 K, 10000 kPa | 884.4 ± 1.6
288.15 K, 11900 kPa | 885.8 ± 1.7
288.15 K, 13900 kPa | 887.1 ± 1.7
288.15 K, 16000 kPa | 888.4 ± 1.8
288.15 K, 18000 kPa | 889.7 ± 1.8
288.15 K, 20100 kPa | 891.2 ± 1.9
298.15 K, 100 kPa | 868.8 ± 1.3
298.15 K, 2000 kPa | 870.2 ± 1.3
298.15 K, 4100 kPa | 871.8 ± 1.4
298.15 K, 6100 kPa | 873.3 ± 1.5
298.15 K, 8100 kPa | 874.8 ± 1.6
298.15 K, 10000 kPa | 876.2 ± 1.6
298.15 K, 12100 kPa | 877.8 ± 1.7
298.15 K, 14200 kPa | 879.3 ± 1.8
298.15 K, 16300 kPa | 880.7 ± 1.8
298.15 K, 18300 kPa | 882.1 ± 1.9
298.15 K, 20200 kPa | 883.4 ± 2
308.15 K, 100 kPa | 861.4 ± 1.3
308.15 K, 2000 kPa | 862.8 ± 1.4
308.15 K, 4000 kPa | 864.4 ± 1.4
308.15 K, 6000 kPa | 865.9 ± 1.5
308.15 K, 7900 kPa | 867.5 ± 1.6
308.15 K, 10100 kPa | 869.1 ± 1.7
308.15 K, 12000 kPa | 870.5 ± 1.7
308.15 K, 14000 kPa | 872 ± 1.8
308.15 K, 15900 kPa | 873.3 ± 1.9
308.15 K, 18000 kPa | 874.8 ± 2
308.15 K, 20000 kPa | 876.5 ± 2
318.15 K, 100 kPa | 852.9 ± 1.3
318.15 K, 2000 kPa | 854.5 ± 1.4
318.15 K, 4000 kPa | 856.2 ± 1.5
318.15 K, 6000 kPa | 857.9 ± 1.5
318.15 K, 8000 kPa | 859.5 ± 1.6
318.15 K, 10000 kPa | 861.2 ± 1.7
318.15 K, 12000 kPa | 862.8 ± 1.8
318.15 K, 14000 kPa | 864.3 ± 1.9
318.15 K, 16000 kPa | 865.8 ± 1.9
318.15 K, 18000 kPa | 867.3 ± 2
318.15 K, 20100 kPa | 868.9 ± 2.1

CC(=O)N(C)C [N,N-dimethylethanamide]
Conditions | mass density [kg/m3]
288.15 K, 100 kPa | 945.7 ± 0.5
288.15 K, 2000 kPa | 946.7 ± 0.5
288.15 K, 4000 kPa | 947.8 ± 0.5
288.15 K, 6000 kPa | 949 ± 0.6
288.15 K, 8100 kPa | 950.1 ± 0.6
288.15 K, 9900 kPa | 951.1 ± 0.6
288.15 K, 12000 kPa | 952.2 ± 0.6
288.15 K, 13900 kPa | 953.2 ± 0.6
288.15 K, 16000 kPa | 954.3 ± 0.6
288.15 K, 18100 kPa | 955.4 ± 0.7
288.15 K, 20000 kPa | 956.5 ± 0.7
298.15 K, 100 kPa | 937 ± 0.5
298.15 K, 2000 kPa | 938.1 ± 0.5
298.15 K, 4100 kPa | 939.4 ± 0.6
298.15 K, 6100 kPa | 940.6 ± 0.6
298.15 K, 8100 kPa | 941.8 ± 0.6
298.15 K, 10000 kPa | 943 ± 0.6
298.15 K, 12100 kPa | 944.1 ± 0.7
298.15 K, 14200 kPa | 945.3 ± 0.7
298.15 K, 16300 kPa | 946.4 ± 0.7
298.15 K, 18400 kPa | 947.5 ± 0.7
298.15 K, 20100 kPa | 948.6 ± 0.7
308.15 K, 100 kPa | 927.9 ± 0.5
308.15 K, 2000 kPa | 929.1 ± 0.6
308.15 K, 4100 kPa | 930.4 ± 0.6
308.15 K, 6100 kPa | 931.6 ± 0.6
308.15 K, 8100 kPa | 932.8 ± 0.6
308.15 K, 10100 kPa | 934 ± 0.7
308.15 K, 12100 kPa | 935.3 ± 0.7
308.15 K, 14200 kPa | 936.5 ± 0.7
308.15 K, 16300 kPa | 937.6 ± 0.7
308.15 K, 18200 kPa | 938.7 ± 0.8
308.15 K, 20200 kPa | 939.9 ± 0.8
318.15 K, 100 kPa | 918.7 ± 0.5
318.15 K, 2000 kPa | 919.8 ± 0.6
318.15 K, 4000 kPa | 921.2 ± 0.6
318.15 K, 6000 kPa | 922.5 ± 0.6
318.15 K, 8000 kPa | 923.8 ± 0.7
318.15 K, 9900 kPa | 925 ± 0.7
318.15 K, 12000 kPa | 926.3 ± 0.7
318.15 K, 14000 kPa | 927.5 ± 0.8
318.15 K, 16000 kPa | 928.7 ± 0.8
318.15 K, 18100 kPa | 930 ± 0.8
318.15 K, 20000 kPa | 931.3 ± 0.8

CCCCCl [1-chlorobutane]
mass density [kg/m3]
Conditions | 288.15 K | 298.15 K | 308.15 K | 318.15 K
100 kPa | 891.8 ± 0.2 | 880.6 ± 0.3 | 870 ± 0.3 | 859.1 ± 0.3
2000 kPa | 893.6 ± 0.3 | 882.6 ± 0.3 | 872.1 ± 0.3 | 861.5 ± 0.3
4000 kPa | – | – | – | 863.8 ± 0.3
4100 kPa | 895.6 ± 0.3 | 884.9 ± 0.3 | 874.4 ± 0.3 | –
6100 kPa | 897.5 ± 0.3 | 886.8 ± 0.3 | 876.5 ± 0.3 | 866.3 ± 0.3
8100 kPa | 899.4 ± 0.3 | 888.7 ± 0.3 | 878.6 ± 0.3 | 868.7 ± 0.3
10100 kPa | 901.3 ± 0.3 | 890.9 ± 0.3 | 880.8 ± 0.3 | 870.9 ± 0.3
12100 kPa | 903 ± 0.3 | 892.8 ± 0.3 | 882.9 ± 0.3 | 873.1 ± 0.3
14100 kPa | 904.9 ± 0.3 | – | – | 875.1 ± 0.3
14200 kPa | – | 894.7 ± 0.3 | 884.9 ± 0.3 | –
16200 kPa | – | 896.5 ± 0.3 | 886.8 ± 0.3 | 877.2 ± 0.4
16300 kPa | 906.7 ± 0.3 | – | – | –
18300 kPa | – | 898.5 ± 0.3 | 888.8 ± 0.4 | –
18400 kPa | 908.5 ± 0.3 | – | – | 879.3 ± 0.4
20200 kPa | 910.3 ± 0.3 | – | 890.6 ± 0.4 | 881.2 ± 0.4
20400 kPa | – | 900.2 ± 0.3 | – | –
